In article PMC9092428, “Towards identification of protein–protein interaction stabilizers via inhibitory peptide-fragment hybrids using templated fragment ligation” (RSC Chemical Biology, 2022):
Square brackets hold non-standard residues; d marks the D form. Peptide text beside a SMILES is read from it. * marks the point of attachment. 5FAM = O=C1OC2(c3ccc(O)cc3Oc3cc(O)ccc32)c2ccc(C(=O)*)cc21; pS = N[C@@H](COP(=O)(O)O)C(=O)O; Ahx = NCCCCCC(=O)O

How the values were obtained:
Format in all cases: binding
14-3-3η [1] = biological target: T1, 14-3-3η (Homo sapiens, UniProt Q04917); assay: Dynamic ligation screen, FA competition at single concentration; settings: 10 μM acetylated hydrazide peptide with 5 eq. aldehyde, 24 h room temperature, 1 μM 14-3-3η, 50 nM hDMX361–374^pSer367*, 50 mM NH4OAc, 10 mM aniline, 1 mM DTT; duplicates
T1 construct: full length proteins were concentrated by centrifugation; His tag (pProEx HTb vector) (N); made in house; host or cells: E. coli BL21(DE3)
T1 sequence (Q04917 1-246): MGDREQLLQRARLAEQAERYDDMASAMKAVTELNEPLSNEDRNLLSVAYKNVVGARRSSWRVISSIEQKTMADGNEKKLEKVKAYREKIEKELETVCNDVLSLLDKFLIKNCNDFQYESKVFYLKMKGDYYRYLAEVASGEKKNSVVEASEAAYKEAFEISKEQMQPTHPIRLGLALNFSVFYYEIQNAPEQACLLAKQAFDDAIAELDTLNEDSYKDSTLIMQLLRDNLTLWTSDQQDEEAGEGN
Method: A fluorescence anisotropy (FA) competition assay was subsequently carried out using conditions previously found suitable for acylhydrazone formation (pH 6.5, 50 mM NH4OAc, 10 mM aniline) with added DTT (1 mM) to supress disulfide formation. hDMX361–369^pSer367Gly-hydrazide was used to compete with a tracer peptide: hDMX361–374^pSer367* for binding to 14-3-3η (Fig S2, ESI ^†). […] Initial attempts to screen in cocktails, established the aldehydes had no affect on their own (Fig. S3, ESI ^†). We then performed an assay where each aldehyde was screened individually with hDMX361–369^pSer367Gly-hydrazide. A decrease in anisotropy can be attributed to a particular hydrazone product, avoiding the additional step of product identification e.g. by HRMS, and, combines the equilibration step for hydrazone formation with 14-3-3η screening (Fig. 2a). […]
Figure S3. […] Aldehydes were assessed as […]
(§1) Screening was performed using fluorescence anisotropy competition assay, in 50 mM NH4Ac pH 6.5 buffer containing 10 mM aniline, 1 mM DTT. […]
Screening was performed using 10 μM acetylated hydrazide peptide mixed with 5 eq. of aldehyde, 1 μM 14-3-3η,. […] After 24 hours, hDMX tracer peptide was added to a concentration of 50 nM to the experiment wells or equal amount of buffers was added to the blanks and the plate was read immediately. […]

14-3-3η [2] = biological target: T1, 14-3-3η; assay: Fluorescence anisotropy (FA) competition assay against tracer hDMX361–374^pSer367*; settings: Fig. 2b experiment; hydrazide equilibrated with 5 eq. aldehyde, serially diluted; 50 nM hDMX361–374^pSer367*, 1 μM 14-3-3η, 50 mM NH4OAc, 10 mM aniline, 1 mM DTT, pH 6.5
Method: A fluorescence anisotropy (FA) competition assay was subsequently carried out using conditions previously found suitable for acylhydrazone formation (pH 6.5, 50 mM NH4OAc, 10 mM aniline) with added DTT (1 mM) to supress disulfide formation. hDMX361–369^pSer367Gly-hydrazide was used to compete with a tracer peptide: hDMX361–374^pSer367* for binding to 14-3-3η (Fig S2, ESI ^†). […] Initial attempts to screen in cocktails, established the aldehydes had no affect on their own (Fig. S3, ESI ^†). We then performed an assay where each aldehyde was screened individually with hDMX361–369^pSer367Gly-hydrazide. A decrease in anisotropy can be attributed to a particular hydrazone product, avoiding the additional step of product identification e.g. by HRMS, and, combines the equilibration step for hydrazone formation with 14-3-3η screening (Fig. 2a). […] To confirm the single-concentration results, a competition assay was performed (Fig. 2b). hDMX361–369^pSer367Gly-hydrazide was equilibrated with 5 equivalents of each aldehyde (product formation confirmed by LC-MS, see Fig. S4, ESI ^†), and serially diluted against the tracer peptide (hDMX361–374^pSer367*) and 14-3-3η protein.
Fig. 2 Dynamic ligation screening based on hDMX361–369^pSer367Gly-hydrazide (a) Anisotropy values of individually screened hydrazones (relative to buffer, zero activity negative control in grey), hDMX361–374^pSer367 (blue) and hDMX361–369^pSer367Gly-hydrazide (red) as positive controls with hits (hDMX361–369^pSer367Gly-hydrazone-FC45 and hDMX361–369^pSer367Gly-hydrazone-SIG17) highlighted in orange boxes (10 μM acetylated hydrazide peptide mixed with 5 eq. of aldehyde, 1 μM 14-3-3η, 50 nM hDMX361–374^pSer367*, 50 mM NH4OAc, 10 mM aniline and 1 mM DTT) (b) competition FA curves for hydrazones taken forward as hits (50 nM hDMX361–374^pSer367*, 1 μM 14-3-3η in 50 mM NH4OAc, 10 mM aniline and 1 mM DTT).
Fig. 3 Dynamic ligation screening based on hDMX361–370^pSer367Gly-hydrazide (a) anisotropy values of individually screened hydrazones (relative to buffer, zero activity negative control in grey), hDMX361–374^pSer367 (blue) and hDMX361–370^pSer367Gly-hydrazide (red) as positive controls with hits highlighted in black boxes (10 μM acetylated hydrazide peptide mixed with 5 eq. of aldehyde, 1 μM 14-3-3η, 50 nM hDMX361–374^pSer367*, 50 mM NH4OAc, 10 mM aniline and 1 mM DTT) (b) representative competition FA curves for hydrazones taken forwards as hits (50 nM hDMX361–374^pSer367*, 1 μM 14-3-3η in 50 mM NH4OAc, 10 mM aniline and 1 mM DTT). […]
as §1

14-3-3η [3] = biological target: T1, 14-3-3η; assay: FA direct titration of tracer peptide; settings: tracer 50 nM, 10 mM HEPES, 150 mM NaCl, 0.1% Tween 20, 0.1% BSA, pH 7.4; triplicates; read-out: Kd (14-3-3 affinity by FA)
Method: To explore the effect of non-linked fragments, 5 commercially available fragments with similarity to the reduced aldehyde form of COOH4, FC50 and FC32; analogues bearing alcohol or methyl groups in place of the aldehyde (Fig. 3c) were assessed. For consistency a modified tracer peptide was used (hDMX361–370^pSer367Gly* i.e. analogous to the screening peptide but bearing FAM-Ahx). […] Stabilization of the peptide/14-3-3η interaction was observed as the anisotropy increased at the highest fragment concentration, consistent with millimolar affinities (Fig. 3c).
Figure S7. Direct titration of peptide for analysis of fragment stabilizing effects ( hDMX361- […]
(1 picture or pasted object on this page, not shown here)
Peptides were cleaved and side-chain deprotected using ‘Reagent K’ […]
Direct titration assay: All assays were performed in 384 well plates (each experiment was run in triplicates) and data were collected by Perkin Elmer EnVision 2013 plate reader with excitation at 480 nm (30 nm bandwidth), polarised dichroic mirror at 505 nm and emission at 535 nm (40 nm bandwidth, S and P polarised). […] A ½ fold dilution series was performed in the titration, with plates read after 30 min, 4 h and 20-24 h. […]
Collected data were processed in Microsoft Excel using the equations bellow. Total intensity I and anisotropy r were calculated using Equations 1 and 2 for each well. […]

Q: Which results are given for `CC[C@H](C)[C@H](NC(=O)[C@@H](NC(=O)[C@H](CCCNC(=N)N)NC(=O)[C@H](CCCNC(=N)N)NC(=O)[C@H](CS)NC(=O)[C@H](CC(=O)O)NC(C)=O)[C@@H](C)O)C(=O)N[C@@H](COP(=O)(O)O)C(=O)N[C@@H](C)C(=O)N1CCC[C@H]1C(=O)NCC(=O)N/N=C/c1scc(Br)c1Br` [hDMX361–369^pSer367Gly-hydrazone-SIG17] (HELM PEPTIDE1{[ac].D.C.R.R.T.I.[O=C([C@H](COP(=O)(O)O)N[*:1])[*:2]].A.P.G.[Brc1csc(/C=N/N[*:1])c1Br]}$$$$V2.0)?
A: Anisotropy of individually screened hydrazones relative to controls (hit call) (14-3-3η [1]): hits; IC50 (14-3-3η [2]): 13.7 ± 0.5 µM

Q: `CC[C@H](C)[C@H](NC(=O)[C@@H](NC(=O)[C@H](CCCNC(=N)N)NC(=O)[C@H](CCCNC(=N)N)NC(=O)[C@H](CS)NC(=O)[C@H](CC(=O)O)NC(=O)CCCCCNC(=O)c1ccc2c(c1)C(=O)OC21c2ccc(O)cc2Oc2cc(O)ccc21)[C@@H](C)O)C(=O)N[C@@H](COP(=O)(O)O)C(=O)N[C@@H](C)C(=O)N1CCC[C@H]1C(=O)N[C@H](C(=O)NCC(N)=O)C(C)C` [hDMX361–370^pSer367Gly*] ({5FAM-Ahx}-DCRRTI[pS]APVG-NH2) was tested. Which Kd (14-3-3η [3]) did it give?
A: 0.172 ± 0.0093 µM
